Measured values reported in patent publication EP4563146A1 (IRBM S.P.A., priority 2023, dated 2025).
Like-named read-outs stand apart in the source and are kept apart here.

How the values were obtained:
[1] = molecular target: T1, West Nile Virus (WNV) NS2B-NS3 protease (West Nile virus, UniProt Q9Q6P4); experiment: WNV protease inhibition assay; format: biochemical; conditions: Table 4; letter codes for IC50
T1 construct: NS2B1423-1470); purchased R&D 2907-SE-020
Description: WNV protease inhibition assay

ZIKV replicon = experiment: ZIKV replication inhibition assay (NanoLuc replicon in Vero cells); conditions: 72 h
[2] = Zika virus, Vero, read-out: ZIKA Cell_Nanoluc, Vero cells with stable ZIKV replicon, 72 h, Nano-Glo readout
[3] = Zika virus, Vero, read-out: ZIKA Cell_Nanoluc

T1 sequence (Q9Q6P4 1423-1470): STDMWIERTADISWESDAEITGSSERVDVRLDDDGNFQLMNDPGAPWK
T1 sequence (Q9Q6P4 1506-1689): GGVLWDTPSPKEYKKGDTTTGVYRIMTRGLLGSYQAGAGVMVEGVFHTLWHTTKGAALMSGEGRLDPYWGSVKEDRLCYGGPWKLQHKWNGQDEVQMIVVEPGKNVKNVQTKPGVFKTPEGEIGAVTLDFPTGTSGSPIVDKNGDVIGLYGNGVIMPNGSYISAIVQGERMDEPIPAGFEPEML

Row | SMILES | IC50 [1] [µM] | EC50 (ZIKV replicon; read-out: ZIKA Cell_Nanoluc, Vero cells with stable ZIKV replicon, Nano-Glo readout) [µM] | EC50 (ZIKV replicon; [2]) [µM] | EC50 (ZIKV replicon; [3]) [µM]
1 | CN(C)C[C@H]1CC[C@H]([n+]2cc([N-]C(=O)Nc3cc(NC(=O)Cc4ccc(C(=O)O)cc4)cc(C(F)(F)F)c3)on2)CC1 [Example 156, ((3-(2-(4-Carboxyphenyl)acetamido)-5-(trifluoromethyl)phenyl)carbamoyl)(3-((1R,4R)-4-((dimethylamino)methyl)cyclohexyl)-1,2,3-oxadiazol-3-ium-5-yl)amide] | 1 to 20 | 1 to 20 | – | –
2 | COC(=O)[C@H]1CCC[C@@H]([n+]2cc([N-]C(=O)Nc3cc(NC(=O)Cc4ccccc4C)cc(C(F)(F)F)c3)on2)C1 [Example 223, (3-((1R,3S)-3-(Methoxycarbonyl)cyclohexyl)-1,2,3-oxadiazol-3-ium-5-yl)((3-(2-(o-tolyl)acetamido)-5-(trifluoromethyl)phenyl)-carbamoyl)amide] | < 0.1 | – | < 0.1 | –
3 | CN(C)C[C@H]1CC[C@H]([n+]2cc([N-]C(=O)Nc3cc(NC(=O)Cc4ccccc4Cl)nc(C(F)(F)F)c3)on2)CC1 [Example 193, ((2-(2-(2-Chlorophenyl)acetamido)-6-(trifluoromethyl)pyridin-4-yl)carbamoyl)(3-((1R,4R)-4-((dimethylamino)methyl)-cyclohexyl)-1,2,3-oxadiazol-3-ium-5-yl)amide] | 1 to 20 | – | – | 0.1 to 1
4 | Cc1ncnc(C)c1-c1ccc(C[n+]2cc([N-]C(=O)N[C@H]3CC[C@H](C(F)(F)F)C3)on2)cc1 [Example 233, (3-(4-(4,6-Dimethylpyrimidin-5-yl)benzyl)-1,2,3-oxadiazol-3-ium-5-yl)(((1S,3S)-3-(trifluoromethyl)cyclopentyl)carbamoyl)amide] | 0.1 to 1 | – | 0.1 to 1 | –
5 | CN(C)C[C@H]1CC[C@H]([n+]2cc([N-]C(=O)Nc3cc(N4CCC(c5ccccc5)C4=O)cc(C(F)(F)F)c3)on2)CC1 (stereo partly drawn) [Example 148, (3-((1R,4R)-4-((Dimethylamino)methyl)-cyclohexyl)-1,2,3-oxadiazol-3-ium-5-yl)((3-(2-oxo-3-phenylpyrrolidin-1-yl)-5-(trifluoromethyl)-phenyl)carbamoyl)amide] | 0.1 to 1 | – | – | 1 to 20
6 | CN1CCc2ccccc2C1C[n+]1cc([N-]C(=O)Nc2cc(NC(=O)Cc3ccccc3)cc(C(F)(F)F)c2)on1 (racemic) [Example 192, rac-(3-((2-Methyl-1,2,3,4-tetrahydroisoquinolin-1-yl)methyl)-1,2,3-oxadiazol-3-ium-5-yl)((3-(2-phenylacetamido)-5-(trifluoromethyl)phenyl)carbamoyl)amide] | 0.1 to 1 | – | 0.1 to 1 | –
7 | O=C([N-]c1c[n+](CC23CC(c4cncnc4)(C2)C3)no1)Nc1cccc(C(F)(F)F)c1 [Example 183, (3-((3-(Pyrimidin-5-yl)bicyclo[1.1.1]pentan-1-yl)methyl)-1,2,3-oxadiazol-3-ium-5-yl)((3-(trifluoromethyl)phenyl)carbamoyl)amide] | 0.1 to 1 | – | 0.1 to 1 | –
8 | Cc1ccccc1CC(=O)Nc1cc(NC(=O)[N-]c2c[n+]([C@H]3CC[C@H](N(C)C)CC3)no2)cc(C(F)(F)F)c1 [Example 257, (3-((1R,4R)-4-(Dimethylamino)cyclohexyl)-1,2,3-oxadiazol-3-ium-5-yl)((3-(2-(o-tolyl)-acetamido)-5-(trifluoromethyl)phenyl)-carbamoyl)amide] | < 0.1 | – | – | 1 to 20
9 | Cc1ccccc1CC(=O)Nc1cc(NC(=O)[N-]c2c[n+]([C@H]3CC[C@H](C(=O)N4CCCC4)CC3)no2)cc(C(F)(F)F)c1 [Example 254, (3-((1R,4R)-4-(Pyrrolidine-1-carbonyl)-cyclohexyl)-1,2,3-oxadiazol-3-ium-5-yl)((3-(2-(o-tolyl)acetamido)-5-(trifluoromethyl)phenyl)-carbamoyl)amide] | < 0.1 | – | – | 1 to 20
10 | CN(C)C[C@H]1CC[C@H]([n+]2cc([N-]C(=O)Nc3cc(N(C)C(=O)Cc4ccccc4)cc(C(F)(F)F)c3)on2)CC1 [Example 172, (3-((1R,4R)-4-((Dimethylamino)methyl)-cyclohexyl)-1,2,3-oxadiazol-3-ium-5-yl)((3-(N-methyl-2-phenylacetamido)-5-(trifluoromethyl)-phenyl)carbamoyl)amide] | 0.1 to 1 | – | – | 1 to 20
